Test results: PubChem BioAssay AID2060617 (Molecular Pharmacology Branch, DTP, NCI, 2025)

Tested on: 485368-065-R4-J2-PDC spheroids with HUVEC/MSC, viability
Test: Anticancer human tumor 485368-065-R4-J2-PDC patient-derived pancreatic carcinoma cell line growth inhibition [CLK]
Conditions: for IC50: curve of first compound; for viability, T/C: stronger effect = lower value
Method in brief: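 Multi-cell-type spheroids combined patient-derived tumor cells with HUVEC endothelial cells and human mesenchymal stem cells. Paired agents were dosed in half-log steps down from about clinical Cmax, or from 10 microM where Cmax was unknown.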

[1] = second compound 0.0316 µM, first compound 0.00316 µM
[2] = second compound 0.0316 µM, first compound 0.01 µM
[3] = second compound 0.0316 µM, first compound 0.0316 µM
[4] = second compound 0.0316 µM, first compound 0.1 µM
[5] = second compound 0.0316 µM, first compound 0.316 µM
[6] = second compound 0.0316 µM, first compound 1 µM
[7] = second compound 0.1 µM, first compound 0.00316 µM
[8] = second compound 0.1 µM, first compound 0.01 µM
[9] = second compound 0.1 µM, first compound 0.0316 µM
[10] = second compound 0.1 µM, first compound 0.1 µM
[11] = second compound 0.1 µM, first compound 0.316 µM
[12] = second compound 0.1 µM, first compound 1 µM
[13] = second compound 0.316 µM, first compound 0.00316 µM
[14] = second compound 0.316 µM, first compound 0.01 µM
[15] = second compound 0.316 µM, first compound 0.0316 µM
[16] = second compound 0.316 µM, first compound 0.1 µM
[17] = second compound 0.316 µM, first compound 0.316 µM
[18] = second compound 0.316 µM, first compound 1 µM
[19] = second compound 1 µM, first compound 0.00316 µM
[20] = second compound 1 µM, first compound 0.01 µM
[21] = second compound 1 µM, first compound 0.0316 µM
[22] = second compound 1 µM, first compound 0.1 µM
[23] = second compound 1 µM, first compound 0.316 µM
[24] = second compound 1 µM, first compound 1 µM
[25] = second compound 3.16 µM, first compound 0.00316 µM
[26] = second compound 3.16 µM, first compound 0.01 µM
[27] = second compound 3.16 µM, first compound 0.0316 µM
[28] = second compound 3.16 µM, first compound 0.1 µM
[29] = second compound 3.16 µM, first compound 0.316 µM
[30] = second compound 3.16 µM, first compound 1 µM
[31] = second compound 10 µM, first compound 0.00316 µM
[32] = second compound 10 µM, first compound 0.01 µM
[33] = second compound 10 µM, first compound 0.0316 µM
[34] = second compound 10 µM, first compound 0.1 µM
[35] = second compound 10 µM, first compound 0.316 µM
[36] = second compound 10 µM, first compound 1 µM
[37] = second compound 0.0316 µM, first compound 3.16 µM
[38] = second compound 0.0316 µM, first compound 10 µM
[39] = second compound 0.1 µM, first compound 3.16 µM
[40] = second compound 0.1 µM, first compound 10 µM
[41] = second compound 0.316 µM, first compound 3.16 µM
[42] = second compound 0.316 µM, first compound 10 µM
[43] = second compound 1 µM, first compound 3.16 µM
[44] = second compound 1 µM, first compound 10 µM
[45] = second compound 3.16 µM, first compound 3.16 µM
[46] = second compound 3.16 µM, first compound 10 µM
[47] = second compound 10 µM, first compound 3.16 µM
[48] = second compound 10 µM, first compound 10 µM
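Note: spheroids exposed to compounds for seven days.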
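Throughout, for viability, T/C: 100% = DMSO vehicle control wells.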

CCc1c2c(nc3ccc(O)cc13)-c1cc3c(c(=O)n1C2)COC(=O)[C@]3(O)CC + CN1CCN(c2cc(C(=O)Nc3cc4cc(-c5cnn(C)c5)ccc4cn3)ccn2)CC1
IC50 (second compound 0.0316 µM): < 3.16 nM
IC50 (second compound 0.1 µM): < 3.16 nM
IC50 (second compound 0.316 µM): < 3.16 nM
IC50 (second compound 1 µM): < 3.16 nM
IC50 (second compound 3.16 µM): < 3.16 nM
IC50 (second compound 10 µM): < 3.16 nM
viability, T/C [1]: 38.6%
viability, T/C [2]: 20%
viability, T/C [3]: 11.3%
viability, T/C [4]: 7.09%
viability, T/C [5]: 8.74%
viability, T/C [6]: 11.7%
viability, T/C [7]: 33.3%
viability, T/C [8]: 16.6%
viability, T/C [9]: 9.62%
viability, T/C [10]: 6.3%
viability, T/C [11]: 10.2%
viability, T/C [12]: 15.5%
viability, T/C [13]: 26.4%
viability, T/C [14]: 12.7%
viability, T/C [15]: 8.57%
viability, T/C [16]: 8%
viability, T/C [17]: 11.9%
viability, T/C [18]: 13.1%
viability, T/C [19]: 2.16%
viability, T/C [20]: 3.01%
viability, T/C [21]: 7.32%
viability, T/C [22]: 8.2%
viability, T/C [23]: 13.4%
viability, T/C [24]: 15.4%
viability, T/C [25]: 3.22%
viability, T/C [26]: 5.26%
viability, T/C [27]: 11.6%
viability, T/C [28]: 11.3%
viability, T/C [29]: 14.1%
viability, T/C [30]: 13%
viability, T/C [31]: 2.58%
viability, T/C [32]: 4.97%
viability, T/C [33]: 9.49%
viability, T/C [34]: 8.95%
viability, T/C [35]: 11.7%
viability, T/C [36]: 14%

Cn1ncnc1[C@H]1c2n[nH]c(=O)c3cc(F)cc(c23)N[C@@H]1c1ccc(F)cc1 + CN1CCN(c2cc(C(=O)Nc3cc4cc(-c5cnn(C)c5)ccc4cn3)ccn2)CC1
IC50 (second compound 0.0316 µM): > 100 nM
IC50 (second compound 0.1 µM): > 100 nM
IC50 (second compound 0.316 µM): 88.6 nM
IC50 (second compound 1 µM): < 0.316 nM
IC50 (second compound 3.16 µM): < 0.316 nM
IC50 (second compound 10 µM): < 0.316 nM
viability, T/C (second compound 0.0316 µM, first compound 0.000316 µM): 99.9%
viability, T/C (second compound 0.0316 µM, first compound 0.001 µM): 107%
viability, T/C [1]: 105%
viability, T/C [2]: 105%
viability, T/C [3]: 109%
viability, T/C [4]: 88.7%
viability, T/C (second compound 0.1 µM, first compound 0.000316 µM): 108%
viability, T/C (second compound 0.1 µM, first compound 0.001 µM): 112%
viability, T/C [7]: 119%
viability, T/C [8]: 109%
viability, T/C [9]: 96.6%
viability, T/C [10]: 75.9%
viability, T/C (second compound 0.316 µM, first compound 0.000316 µM): 85.2%
viability, T/C (second compound 0.316 µM, first compound 0.001 µM): 87.8%
viability, T/C [13]: 84.1%
viability, T/C [14]: 72.2%
viability, T/C [15]: 55.9%
viability, T/C [16]: 49.2%
viability, T/C (second compound 1 µM, first compound 0.000316 µM): 1.46%
viability, T/C (second compound 1 µM, first compound 0.001 µM): 0.88%
viability, T/C [19]: 1.83%
viability, T/C [20]: 0.77%
viability, T/C [21]: 1.6%
viability, T/C [22]: 1.69%
viability, T/C (second compound 3.16 µM, first compound 0.000316 µM): 1%
viability, T/C (second compound 3.16 µM, first compound 0.001 µM): 1.76%
viability, T/C [25]: 0.88%
viability, T/C [26]: 1.07%
viability, T/C [27]: 1.7%
viability, T/C [28]: 1.76%
viability, T/C (second compound 10 µM, first compound 0.000316 µM): 2.24%
viability, T/C (second compound 10 µM, first compound 0.001 µM): 1.19%
viability, T/C [31]: 1.54%
viability, T/C [32]: 2.1%
viability, T/C [33]: 2.02%
viability, T/C [34]: 1.77%

Nc1ccn(C2OC(CO)C(O)C2(F)F)c(=O)n1 (stereo not given) + CN1CCN(c2cc(C(=O)Nc3cc4cc(-c5cnn(C)c5)ccc4cn3)ccn2)CC1
IC50 (second compound 0.0316 µM): < 31.6 nM
IC50 (second compound 0.1 µM): < 31.6 nM
IC50 (second compound 0.316 µM): < 31.6 nM
IC50 (second compound 1 µM): < 31.6 nM
IC50 (second compound 3.16 µM): < 31.6 nM
IC50 (second compound 10 µM): < 31.6 nM
viability, T/C [3]: 48.5%
viability, T/C [4]: 32.7%
viability, T/C [5]: 24.1%
viability, T/C [6]: 24.2%
viability, T/C [37]: 25.3%
viability, T/C [38]: 21.6%
viability, T/C [9]: 39.2%
viability, T/C [10]: 21.1%
viability, T/C [11]: 19.5%
viability, T/C [12]: 16.6%
viability, T/C [39]: 16.6%
viability, T/C [40]: 13.8%
viability, T/C [15]: 28.5%
viability, T/C [16]: 16.6%
viability, T/C [17]: 14.1%
viability, T/C [18]: 14.9%
viability, T/C [41]: 14.1%
viability, T/C [42]: 12.8%
viability, T/C [21]: 0.77%
viability, T/C [22]: 2.15%
viability, T/C [23]: 3.11%
viability, T/C [24]: 1.96%
viability, T/C [43]: 2.6%
viability, T/C [44]: 3.01%
viability, T/C [27]: 1.85%
viability, T/C [28]: 1.43%
viability, T/C [29]: 2.71%
viability, T/C [30]: 4.76%
viability, T/C [45]: 2.68%
viability, T/C [46]: 5.26%
viability, T/C [33]: 1.32%
viability, T/C [34]: 2.34%
viability, T/C [35]: 1.93%
viability, T/C [36]: 2.61%
viability, T/C [47]: 2.98%
viability, T/C [48]: 2.55%

O=C(c1cc(Cc2n[nH]c(=O)c3ccccc23)ccc1F)N1CCN(C(=O)C2CC2)CC1 + CN1CCN(c2cc(C(=O)Nc3cc4cc(-c5cnn(C)c5)ccc4cn3)ccn2)CC1
IC50 (second compound 0.0316 µM): > 10000 nM
IC50 (second compound 0.1 µM): > 10000 nM
IC50 (second compound 0.316 µM): 8880 nM
IC50 (second compound 1 µM): < 31.6 nM
IC50 (second compound 3.16 µM): < 31.6 nM
IC50 (second compound 10 µM): < 31.6 nM
viability, T/C [3]: 92.6%
viability, T/C [4]: 111%
viability, T/C [5]: 106%
viability, T/C [6]: 110%
viability, T/C [37]: 105%
viability, T/C [38]: 82.6%
viability, T/C [9]: 107%
viability, T/C [10]: 105%
viability, T/C [11]: 105%
viability, T/C [12]: 103%
viability, T/C [39]: 105%
viability, T/C [40]: 76%
viability, T/C [15]: 79%
viability, T/C [16]: 79.9%
viability, T/C [17]: 79.7%
viability, T/C [18]: 81.1%
viability, T/C [41]: 70.5%
viability, T/C [42]: 47.5%
viability, T/C [21]: 1.08%
viability, T/C [22]: 1.02%
viability, T/C [23]: 1.67%
viability, T/C [24]: 2.06%
viability, T/C [43]: 2.06%
viability, T/C [44]: 2.39%
viability, T/C [27]: 1.23%
viability, T/C [28]: 1.3%
viability, T/C [29]: 1.64%
viability, T/C [30]: 2.47%
viability, T/C [45]: 1.39%
viability, T/C [46]: 3.02%
viability, T/C [33]: 1.53%
viability, T/C [34]: 1.87%
viability, T/C [35]: 2.81%
viability, T/C [36]: 2.7%
viability, T/C [47]: 2.29%
viability, T/C [48]: 1.73%

O=c1[nH]cc(F)c(=O)[nH]1 + CN1CCN(c2cc(C(=O)Nc3cc4cc(-c5cnn(C)c5)ccc4cn3)ccn2)CC1
IC50 (second compound 0.0316 µM): > 10000 nM
IC50 (second compound 0.1 µM): > 10000 nM
IC50 (second compound 0.316 µM): > 10000 nM
IC50 (second compound 1 µM): < 31.6 nM
IC50 (second compound 3.16 µM): < 31.6 nM
IC50 (second compound 10 µM): < 31.6 nM
viability, T/C [3]: 99.3%
viability, T/C [4]: 108%
viability, T/C [5]: 102%
viability, T/C [6]: 112%
viability, T/C [37]: 99.6%
viability, T/C [38]: 82%
viability, T/C [9]: 106%
viability, T/C [10]: 114%
viability, T/C [11]: 115%
viability, T/C [12]: 110%
viability, T/C [39]: 114%
viability, T/C [40]: 81.8%
viability, T/C [15]: 90%
viability, T/C [16]: 89.7%
viability, T/C [17]: 87.6%
viability, T/C [18]: 91.8%
viability, T/C [41]: 101%
viability, T/C [42]: 62%
viability, T/C [21]: 1.1%
viability, T/C [22]: 1.31%
viability, T/C [23]: 0.78%
viability, T/C [24]: 0.63%
viability, T/C [43]: 0.79%
viability, T/C [44]: 1.51%
viability, T/C [27]: 1.14%
viability, T/C [28]: 2.13%
viability, T/C [29]: 1.09%
viability, T/C [30]: 1.94%
viability, T/C [45]: 1.84%
viability, T/C [46]: 2%
viability, T/C [33]: 1.01%
viability, T/C [34]: 2.05%
viability, T/C [35]: 2.31%
viability, T/C [36]: 1.29%
viability, T/C [47]: 1.06%
viability, T/C [48]: 1.21%
